# ± gives the standard deviation of the averaged measurements.
# Experiments:
# Conditions in all cases: 72 h
# U2OS [1] = assay: drug sensitivity score (DSS) for viability; higher = more toxic; extreme values may be limits of the assay
# Vero E6 [2] = assay: as above
# Calu-3 [3] = assay: as above
# Caco-2 [4] = assay: as above
# HepG2 [5] = assay: as above
# U2OS [6] = assay: relative viability EC50 (midpoint between 100% and the lowest measured viability); higher = less toxic
# Vero E6 [7] = assay: as above
# Calu-3 [8] = assay: as above
# Caco-2 [9] = assay: as above
# HepG2 [10] = assay: as above
# U2OS [11] = assay: cell viability relative to DMSO; higher = less toxic
# Vero E6 [12] = assay: as above
# Calu-3 [13] = assay: as above
# Caco-2 [14] = assay: as above
# HepG2 [15] = assay: as above
Structure (SMILES),drug sensitivity score (U2OS [1]),drug sensitivity score (Vero E6 [2]),drug sensitivity score (Calu-3 [3]),drug sensitivity score (Caco-2 [4]),drug sensitivity score (HepG2 [5]),relative viability EC50 (U2OS [6]),relative viability EC50 (Vero E6 [7]),relative viability EC50 (Calu-3 [8]),relative viability EC50 (Caco-2 [9]),relative viability EC50 (HepG2 [10]),cell viability (U2OS [11]; 1 nM),cell viability (U2OS [11]; 10 nM),cell viability (U2OS [11]; 100 nM),cell viability (U2OS [11]; 1000 nM),cell viability (U2OS [11]; 10000 nM),cell viability (Vero E6 [12]; 1 nM),cell viability (Vero E6 [12]; 10 nM),cell viability (Vero E6 [12]; 100 nM),cell viability (Vero E6 [12]; 1000 nM),cell viability (Vero E6 [12]; 10000 nM),cell viability (Calu-3 [13]; 1 nM),cell viability (Calu-3 [13]; 10 nM),cell viability (Calu-3 [13]; 100 nM),cell viability (Calu-3 [13]; 1000 nM),cell viability (Calu-3 [13]; 10000 nM),cell viability (Caco-2 [14]; 1 nM),cell viability (Caco-2 [14]; 10 nM),cell viability (Caco-2 [14]; 100 nM),cell viability (Caco-2 [14]; 1000 nM),cell viability (Caco-2 [14]; 10000 nM),cell viability (HepG2 [15]; 1 nM),cell viability (HepG2 [15]; 10 nM),cell viability (HepG2 [15]; 100 nM),cell viability (HepG2 [15]; 1000 nM),cell viability (HepG2 [15]; 10000 nM)
N[C@@H]1CN(c2c(F)cc3c(=O)c(C(=O)O)cn([C@@H]4C[C@@H]4F)c3c2Cl)CC12CC2 [sitafloxacin],0,0,0,0,0,> 10 µM,> 10 µM,> 10 µM,> 10 µM,> 10 µM,104%,96.3%,96%,95.8%,96.8%,91.3%,98%,91.6%,99%,106%,98.5%,94%,98%,96.7%,93.9%,95.2%,95.6%,91.6%,106%,97.2%,107%,101%,97.5%,110%,108%
COC1=C(OC)C(=O)C(CCCCCCCCCCO)=C(C)C1=O [idebenone],0,0,0,0.1,0,> 10 µM,> 10 µM,> 10 µM,> 10 µM,> 10 µM,98.6%,105%,94.9%,97.7%,93.8%,102%,100%,96.9%,97.8%,97.7%,100%,104%,90.3%,98%,95.5%,96.4%,101%,103%,98.4%,88.6%,96.1%,95.6%,99.4%,95.9%,97.7%
NC[C@@H]1CC[C@@H](N)[C@@H](O[C@H]2[C@H](O)[C@@H](O[C@H]3O[C@H](CO)[C@@H](O)[C@H](N)[C@H]3O)[C@H](N)C[C@@H]2N)O1 [dibekacin],0,0,0,0,0,> 10 µM,> 10 µM,> 10 µM,> 10 µM,> 10 µM,104%,97.9%,101%,98%,104%,103%,103%,98.1%,101%,101%,101%,91.9%,114%,101%,95%,96%,94.4%,101%,93.5%,106%,96.5%,101%,89.1%,102%,94.5%
C[C@@H](C(=O)O)c1ccc(-c2ccccc2)c(F)c1 (racemic) [flurbiprofen-(+/-)],0,0,0.0333 ± 0.058,0,0,> 10 µM,> 10 µM,> 10 µM,> 10 µM,> 10 µM,101.1 ± 1%,100 ± 7.2%,99.4 ± 2.7%,99 ± 2.2%,96.4 ± 5%,100 ± 1.8%,100 ± 1.6%,97.15 ± 0.92%,95.7 ± 6.5%,97.2 ± 1.3%,92.6 ± 3.4%,98.7 ± 5.3%,93.3 ± 9.1%,96.3 ± 3.1%,98.3 ± 12%,98.7 ± 8%,95.2 ± 2.5%,95.5 ± 4%,96 ± 3.3%,96 ± 8.2%,94.95 ± 0.21%,101 ± 9.9%,94.9 ± 4%,101 ± 2.8%,100 ± 1.4%
CN1CCN(C(c2ccccc2)c2ccccc2)CC1 [cyclizine],0,0,0,0,0,> 10 µM,> 10 µM,> 10 µM,> 10 µM,> 10 µM,105%,94%,101%,95.6%,97.5%,97.7%,96.3%,93.7%,96%,102%,104%,98.9%,85.8%,102%,99.9%,95.7%,101%,99.9%,94.9%,103%,94.7%,99.1%,103%,104%,97.6%
C=CC[C@]1(O)CC[C@H]2[C@@H]3CCC4=CC(=O)CCC4=C3C=C[C@@]21C [altrenogest],0,0,0,0,0,> 10 µM,> 10 µM,> 10 µM,> 10 µM,> 10 µM,92.7%,97.2%,96.1%,97.7%,104%,97%,97.5%,93.2%,89.5%,104%,107%,88%,97.6%,99%,105%,102%,98.1%,99%,107%,96.5%,107%,95.9%,93.6%,90.2%,101%
Cc1cc(C#N)cc(C)c1Oc1nc(Nc2ccc(C#N)cc2)nc(N)c1Br [etravirine],0,0,0,0,0,> 10 µM,> 10 µM,> 10 µM,> 10 µM,> 10 µM,103%,95.2%,97.2%,95.2%,95.3%,97.5%,97.9%,95.7%,105%,107%,94.3%,95.8%,95.7%,96.5%,103%,94%,93.7%,97.2%,105%,102%,110%,101%,92.3%,99.8%,102%
CC(C)(C)OC(=O)N[C@H]1CCCCC/C=C\[C@@H]2C[C@@]2(C(=O)NS(=O)(=O)C2CC2)NC(=O)[C@@H]2C[C@@H](OC(=O)N3Cc4cccc(F)c4C3)CN2C1=O [danoprevir],0,0,0,0.3,0,> 10 µM,> 10 µM,> 10 µM,> 10 µM,> 10 µM,104%,101%,98.9%,99.4%,98.2%,106%,98.8%,98.6%,103%,103%,107%,103%,85.1%,107%,102%,98.1%,98.5%,98.4%,101%,83%,109%,104%,94.2%,92%,95.1%
CCCN(CCC)CCc1ccc(OC)c(OCCc2ccccc2)c1 [NE-100],0,0,0,0.1,0,> 10 µM,> 10 µM,> 10 µM,> 10 µM,> 10 µM,105%,100%,104%,101%,97.9%,107%,106%,99.3%,103%,94.8%,95.1%,93.5%,85.9%,107%,105%,105%,102%,89.8%,92.9%,91.3%,101%,98.5%,98.6%,99.3%,93%
CC(ONC(=O)c1cc(C(F)(F)F)cc(C(F)(F)F)c1)C(=O)Nc1ccc(Cl)cc1 (stereo not given) [CCG-1423],0,0,0,0,0,> 10 µM,> 10 µM,> 10 µM,> 10 µM,> 10 µM,100%,98.6%,105%,99.6%,101%,101%,99.4%,99%,105%,99.2%,96.4%,89.5%,85%,95.1%,98.7%,99.9%,97.9%,91.4%,97.4%,88.6%,108%,99.4%,94.9%,96.8%,89.2%
Cc1cc(C)cc(OCC2CNC(=O)O2)c1 (stereo not given) [metaxalone],0,0,0,0,0,> 10 µM,> 10 µM,> 10 µM,> 10 µM,> 10 µM,97.4%,96.8%,97.1%,99.2%,98.8%,101%,103%,102%,105%,97.7%,95.6%,102%,103%,100%,95.4%,100%,101%,99.9%,103%,105%,92.1%,99.7%,87%,93.2%,101%
CN[C@@H]1[C@@H](O)[C@@H](O[C@@H]2[C@@H](O)[C@H](O[C@H]3OC(CN)=CC[C@H]3N)[C@@H](N)C[C@H]2N)OC[C@]1(C)O [Sisomicin (sulfate)],0,0,0,0,0,> 10 µM,> 10 µM,> 10 µM,> 10 µM,> 10 µM,101 ± 0.64%,102 ± 0.49%,99.7 ± 0.99%,105 ± 3.1%,99.4 ± 0.71%,107 ± 8.3%,107 ± 1.6%,105 ± 4.5%,98.5 ± 1.6%,104 ± 2.9%,105 ± 7.6%,101.8 ± 0.35%,97.1 ± 0.28%,101 ± 4.5%,105 ± 5.2%,100 ± 6.2%,100 ± 4.2%,103 ± 2.8%,100 ± 0.78%,94.15 ± 0.49%,108 ± 8.4%,101 ± 4.7%,107 ± 7.3%,96.8 ± 1.3%,98.1 ± 4.1%
N[C@@H](Cc1cc(CP(=O)(O)O)cc(-c2ccccc2Cl)c1)C(=O)O [SDZ-220-581],0,0,0,0,0,> 10 µM,> 10 µM,> 10 µM,> 10 µM,> 10 µM,99.8%,99.3%,96.8%,106%,105%,95.8%,102%,92.7%,95.9%,107%,107%,92.8%,101%,98.6%,114%,102%,91.5%,91%,101%,111%,96%,99.6%,92.6%,101%,104%
NC(Cc1ccc(I)cc1)C(=O)O (stereo in doubt) [4-iodo-L-phenylalanine],0,0,0,0,0,> 10 µM,> 10 µM,> 10 µM,> 10 µM,> 10 µM,102%,97.8%,98.8%,102%,97.6%,96.7%,99.2%,97.4%,94.4%,103%,103%,101%,106%,108%,95.2%,102%,97.4%,98.2%,97.3%,106%,96.3%,101%,82.5%,104%,109%

# Reference: the supplement of paper PMC13380429
